Measurements reported in US20120197004A1, “NOVEL ANTI-MICROBIAL PEPTIDOMIMETIC COMPOUNDS AND METHODS TO CALCULATE ANTI-MICROBIAL ACTIVITY” (priority 2006, published 2012).
In brackets after ≈: the same amount, converted by molar mass. Where a SMILES comes first, the peptide text is derived from it. [ ]: non-standard residue; d: D form. ξ: configuration not given here. Oic = O=C(O)[C@@H]1C[C@@H]2CCCC[C@@H]2N1; Tic = O=C(O)[C@@H]1Cc2ccccc2CN1; ξTic = O=C(O)C1Cc2ccccc2CN1; ξOic = O=C(O)C1CC2CCCCC2N1; Orn = NCCC[C@H](N)C(=O)O; βAla = NCCC(=O)O

Tests used:
[1] = test system: Mycobacterium ranae (ATCC 110); settings: for MIC Mycobacterium ranae / Minimum Inhibitory Concentration Mycobacterium ranae: ATCC 110
[2] = Maximum tolerated dose in mouse model; assay type: in vivo; settings: IP, 125 mg/kg, dosed daily day 1-6
Description: Maximum Tolerated Dose: Six compounds were evaluated in an in vivo mouse model to determine the maximum tolerated dose for each compound by BIOCON, Inc. using the following protocol. For each compound 3 dose concentrations (1/5/25 mg/kg or 5/25/125 mg/kg) were administered IP, 1-2 times per day as split doses. Day 0 weigh the animals, day 1-6 dose daily and observe animals, day 7 weigh, euthanasia followed by necrotize to examine abdominal cavity.

[3] = test system: B. melitensis 16M
[4] = test system: Staphylococcus aureus Methicillin/Gentamicin/Tetracycline Resistant (ATCC 33592)
[5] = test system: red blood cells; experiment: Hemolytic studies; settings: 100 μM
[6] = Metabolic stability, human liver microsomes; settings: for % remaining at time T, Human Liver: 0.5 mg/mL microsomes
[7] = Metabolic stability, rat liver microsomes
[8] = test system: Bacillus subtillis (ATCC 43223); settings: for MIC Bacillus Subtillis: ATCC 43223
[9] = test system: Salmonella typhimurium (ATCC 13311); settings: for MIC Salmonella typhimurium: ATCC 13311
[10] = Metabolic stability, dog liver microsomes
[11] = test system: F. tularensis SCHU-S4
[12] = Metabolic stability, monkey liver microsomes
[13] = Metabolic stability, mouse liver microsomes
[14] = test system: Salmonella typhimurium strain LT2; experiment: In vivo challenge, gram-negative infection; settings: Balb/c mice, intraperitoneal challenge 2.5×10^6; 5 mg/kg initial, then 2.5 mg/kg morning and afternoon
[15] = test system: mouse cutaneous injury; experiment: Mouse skin wound healing model; assay type: in vivo, CD-1 derived male mice; settings: topical once daily for 10 days; test substances 100 μg/mouse, CGS-21680 10 μg/mouse
Description: In-vivo assays: Selected compounds were evaluated in an in-vivo mouse skin wound healing model by MDS Pharma Services using the following protocol. Groups of CD-1 derived male mice (n=5) weighting 24±2 g were used. Under hexobarbitol (90 mg/kg, IP) anesthesia, the shoulder and back region of each animal was shaved. A sharp punch (ID 12 mm) was applied to remove the skin including panniculus carnosus and adherent tissues. […] The percent closure of the wound (%) was calculated, and wound half-closure time (CT50) was analyzed by linear regression using Graph-Prism (Graph Software USA). One-way ANOVA followed by Dunnett's test was applied for comparison between the treated and its corresponding vehicle groups at each measurement time point. Differences are considered statistically significant at P<0.05.^41

[16] = liver microsomes, 1 μM, T = 60 min

CC(=O)NCCC(=O)N[C@@H](Cc1ccccc1)C(=O)N1Cc2ccccc2CC1C(=O)N1C(C(=O)NCCC(=O)N[C@@H](CCCCN)C(=O)N2Cc3ccccc3CC2C(=O)N2C(C(=O)NCCC(=O)N[C@@H](Cc3ccccc3)C(=O)N3Cc4ccccc4CC3C(=O)N3C(C(=O)NCCC(=O)N[C@@H](CCCCN)C(=O)N4Cc5ccccc5CC4C(=O)N[C@@H](CCCCN)C(=O)N[C@@H](CCCCN)C(=O)N[C@@H](CCCCN)C(=O)N[C@@H](CCCCN)C(N)=O)CC4CCCCC43)CC3CCCCC32)CC2CCCCC21 (stereo partly drawn) [FKAB-1Gd1, Ac-βAla-F-Tic-Oic-βAla-K-Tic-Oic-βAla-F-Tic-Oic-βAla-K-Tic-KKKK-CONH2] (Ac-[βAla]F[ξTic][ξOic][βAla]K[ξTic][ξOic][βAla]F[ξTic][ξOic][βAla]K[ξTic]KKKK-NH2)
MIC Mycobacterium ranae [1]: 1.00 µM (≈ 2.5 µg/mL)
Minimum Inhibitory Concentration Mycobacterium ranae [1]: 1 µM
Maximum Tolerated Dose/Toxicity 125 mg/kg [2]: 5 out 5 animals died
Minimum Inhibitory Concentration B. melitensis 16M [3]: >500 µg/mL
MIC Staphylococcus aureus ME/GM/TC resistant ([4]; ATCC 33592): 10.00 µM (≈ 25 µg/mL)
% hemolysis 100/25 μM (first value) [5]: 24.4%/
remaining at 0.25 h, 1 μM ([6]; human, microsomes, pH 7.4): 94%
metabolic stability T = 60 min human [6, 16]: high
% remaining at time T, Human Liver ([6]; second human column (T = 30 min, head not given), 1 μM): 99%
% remaining at time T, Human Liver ([6]; third human column (T = 60 min, head not given), 1 μM): 97%
metabolic stability T = 60 min rat [7, 16]: high
remaining at 0.25 h, 1 μM ([7]; rat, microsomes, pH 7.4): 82%
remaining at 0.5 h, 1 μM ([7]; rat, microsomes, pH 7.4): 79%
remaining at 1 h, 1 μM ([7]; rat, microsomes, pH 7.4): 92%
MIC Bacillus Subtillis [8]: 1.00 µM (≈ 2.5 µg/mL)
MIC Salmonella typhimurium [9]: 10 µM (≈ 25 µg/mL)
% remaining, Dog Liver T = 15 ([10]; T = 15 min, 1 μM, 0.5 mg/mL microsomes): 84%
remaining at 0.5 h, 1 μM ([10]; dog, microsomes, pH 7.4): 78%
remaining at 1 h, 1 μM ([10]; dog, microsomes, pH 7.4): 71%
metabolic stability T = 60 min dog [10, 16]: Moderate
Minimum Inhibitory Concentration F. tularensis SCHU-S4 [11]: 500 µg/mL
metabolic stability T = 60 min monkey [12, 16]: high
remaining at 0.25 h, 1 μM ([12]; monkey, microsomes, pH 7.4): 90%
remaining at 0.5 h, 1 μM ([12]; monkey, microsomes, pH 7.4): 87%
remaining at 1 h, 1 μM ([12]; monkey, microsomes, pH 7.4): 89%
metabolic stability T = 60 min mouse [13, 16]: moderate
remaining at 0.25 h, 1 μM ([13]; mouse, microsomes, pH 7.4): 90%
remaining at 0.5 h, 1 μM ([13]; mouse, microsomes, pH 7.4): 64%
remaining at 1 h, 1 μM ([13]; mouse, microsomes, pH 7.4): 53%

CC(=O)NCC(=O)N[C@@H](Cc1ccccc1)C(=O)N1Cc2ccccc2C[C@H]1C(=O)N1[C@H](C(=O)NCC(=O)N[C@@H](CCCN)C(=O)N2Cc3ccccc3C[C@H]2C(=O)N2[C@H](C(=O)NCC(=O)N[C@@H](Cc3ccccc3)C(=O)N3Cc4ccccc4C[C@H]3C(=O)N3[C@H](C(=O)NCC(=O)N[C@@H](CCCN)C(=O)N4Cc5ccccc5C[C@H]4C(=O)N[C@@H](CCCN)C(=O)N[C@@H](CCCN)C(=O)N[C@@H](CCCN)C(=O)N[C@@H](CCCN)C(N)=O)C[C@@H]4CCCC[C@@H]43)C[C@@H]3CCCC[C@@H]32)C[C@@H]2CCCC[C@@H]21 [FKAB-1Gp, Ac-GF-Tic-Oic-G-Orn-Tic-Oic-GF-Tic-Oic-G-Orn-Tic-Orn-Orn-Orn-Orn-CONH2] (Ac-GF[Tic][Oic]G[Orn][Tic][Oic]GF[Tic][Oic]G[Orn][Tic][Orn][Orn][Orn][Orn]-NH2)
Actual Bioactivity [1]: 5.000
MIC Mycobacterium ranae [1]: 10.00 µM (≈ 23.6 µg/mL)
Minimum Inhibitory Concentration Mycobacterium ranae [1]: 10 µM
p(MIC) Staphylococcus aureus ME/GM/TC resistant ([4]; -log(MIC)): 5.52
Actual Bioactivity ([4]; p(MIC) used in Staphylococcus aureus QSAR model): 5.520
p(MIC) Bacillus Subtillis ([8]; -log(MIC)): 6.52
MIC Bacillus Subtillis [8]: 0.30 µM (≈ 0.707 µg/mL)
p(MIC) Salmonella typhimurium ([9]; -log(MIC)): 5.52
MIC Salmonella typhimurium [9]: 3 µM (≈ 7.07 µg/mL)
morbidity (survival compared to control group) [14]: Accelerated morbidity
CT50 (wound half-closure time) [15]: 5.7 days
wound closure Day 3 [15]: 38.8%
wound closure Day 5 [15]: 51.2%
wound closure Day 7 [15]: 67.2%
wound closure Day 9 [15]: 72.8%
wound closure Day 11 [15]: 81.1%
